Laboratory results reported in PubChem BioAssay AID330 (DTP/NCI, 2004).
“And” between values parts separate entries of the source, which are not always exact repeats. Equal entries are not always repeated. Toxic doses and inconclusive results are not listed.

Test system: P388 leukemia ip, CD2F1 mice, survival T/C
Experiment: NCI In Vivo Anticancer Drug Screen. Data for tumor model P388 Leukemia (intraperitoneal) in CD2F1 (CDF1) mice
Settings: endpoint: median survival time, higher = longer survival
Outline: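 Mice carrying the transplanted tumor received test compound or vehicle. Survival was recorded in each group, and the value is the treated-group measurement divided by that of the vehicle-treated control group.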

[1] = dose: 50.0 mg/kg/injection, schedule: Q01DX009 (ip), vehicle: Klucel (hydroxypropylcellulose) (HPC)
[2] = dose: 100.0 mg/kg/injection, schedule: Q01DX009 (ip), vehicle: Klucel (hydroxypropylcellulose) (HPC)
[3] = dose: 200.0 mg/kg/injection, schedule: Q01DX009 (ip), vehicle: Klucel (hydroxypropylcellulose) (HPC)
[4] = dose: 60.0 mg/kg/injection, schedule: Q01DX005 (ip), vehicle: Klucel (hydroxypropylcellulose) (HPC)
[5] = dose: 120.0 mg/kg/injection, schedule: Q01DX005 (ip), vehicle: Klucel (hydroxypropylcellulose) (HPC)
[6] = dose: 240.0 mg/kg/injection, schedule: Q01DX005 (ip), vehicle: Klucel (hydroxypropylcellulose) (HPC)
[7] = dose: 100.0 mg/kg/injection, schedule: Q04DX002 (ip), vehicle: Klucel (hydroxypropylcellulose) (HPC)
[8] = dose: 200.0 mg/kg/injection, schedule: Q04DX002 (ip), vehicle: Klucel (hydroxypropylcellulose) (HPC)
[9] = dose: 50.0 mg/kg/injection, schedule: Q01DX005 (ip), vehicle: saline with Tween-80
[10] = dose: 100.0 mg/kg/injection, schedule: Q01DX005 (ip), vehicle: saline with Tween-80
[11] = dose: 200.0 mg/kg/injection, schedule: Q01DX005 (ip), vehicle: saline with Tween-80
[12] = dose: 50.0 mg/kg/injection, schedule: Q01DX009 (ip), vehicle: saline with Tween-80
[13] = dose: 100.0 mg/kg/injection, schedule: Q01DX009 (ip), vehicle: saline with Tween-80
[14] = dose: 200.0 mg/kg/injection, schedule: Q01DX009 (ip), vehicle: saline with Tween-80
[15] = dose: 25.0 mg/kg/injection, schedule: Q04DX002 (ip), vehicle: Klucel (hydroxypropylcellulose) (HPC)
[16] = dose: 50.0 mg/kg/injection, schedule: Q01DX005 (ip), vehicle: Klucel (hydroxypropylcellulose) (HPC)

CN1NC(=O)c2ccccc2NC1=S
T/C [1]: 104 % of control
T/C [2]: 91 % of control
T/C [3]: 101 % of control

Cc1cc(=O)oc2c(-c3ccccc3)nnc(Cl)c12
T/C [4]: 98 % of control
T/C [5]: 96 % of control
T/C [6]: 95 % of control

COC(=O)/C=C\C(=O)O
T/C (dose: 50.0 mg/kg/injection, schedule: Q04DX003 (ip), vehicle: saline): 100 % of control
T/C (dose: 100.0 mg/kg/injection, schedule: Q04DX003 (ip), vehicle: saline): 110 % of control
T/C (dose: 200.0 mg/kg/injection, schedule: Q04DX003 (ip), vehicle: saline): 120 % of control

CCCCC1N=CNc2c1ccc1c2[nH]c2ccccc21 (configuration not stated)
T/C (dose: 12.5 mg/kg/injection, schedule: Q04DX002 (ip), vehicle: saline with Tween-80): 101 % of control
T/C (dose: 25.0 mg/kg/injection, schedule: Q04DX002 (ip), vehicle: saline with Tween-80): 99 % of control
T/C (dose: 50.0 mg/kg/injection, schedule: Q04DX002 (ip), vehicle: saline with Tween-80): 111 % of control

C1C[S][Hg][S]CCO1
T/C (dose: 6.25 mg/kg/injection, schedule: Q01DX009 (ip), vehicle: suspension in saline): 105 % of control
T/C (dose: 12.5 mg/kg/injection, schedule: Q01DX009 (ip), vehicle: suspension in saline): 102 % of control

OP12(OC(C(F)(F)F)(C(F)(F)F)c3ccccc31)OC(C(F)(F)F)(C(F)(F)F)c1ccccc12
T/C [7]: 97 % of control
T/C [8]: 98 % of control

Cn1c(=O)c2nc(-c3ccc(Cl)c(Cl)c3)cnc2n(C)c1=O
T/C [7]: 96 % of control
T/C [8]: 95 % of control
T/C (dose: 400.0 mg/kg/injection, schedule: Q04DX002 (ip), vehicle: Klucel (hydroxypropylcellulose) (HPC)): 98 % of control

S=C1SCN(CCc2c[nH]c3ccccc23)CN1CCc1c[nH]c2ccccc12
T/C [9]: 92 % of control
T/C [10]: 90 % of control
T/C [11]: 92 % of control

CCCCCCCCCCCCCOC(=O)c1ccc(O)cc1
T/C [12]: 98 % of control
T/C [13]: 94 % of control
T/C [14]: 88 % of control

CSCCn1ccnc1[N+](=O)[O-]
T/C (dose: 12.5 mg/kg/injection, schedule: Q01DX009 (ip), vehicle: distilled water + Tween-80): 100 % of control
T/C (dose: 25.0 mg/kg/injection, schedule: Q01DX009 (ip), vehicle: distilled water + Tween-80): 96 % of control
T/C (dose: 50.0 mg/kg/injection, schedule: Q01DX009 (ip), vehicle: distilled water + Tween-80): 100 % of control
T/C (dose: 100.0 mg/kg/injection, schedule: Q01DX009 (ip), vehicle: distilled water + Tween-80): 101 % of control
T/C (dose: 200.0 mg/kg/injection, schedule: Q01DX009 (ip), vehicle: distilled water + Tween-80): 108 % of control

CC(=O)Nc1ccc(Nc2nc(Cl)nc(Nc3ccc(NC(C)=O)cc3)n2)cc1
T/C (dose: 30.0 mg/kg/injection, schedule: Q01DX005 (ip), vehicle: Klucel (hydroxypropylcellulose) (HPC)): 100 % of control
T/C [4]: 89 % of control and 97 % of control
T/C [5]: 93 % of control
T/C [6]: 89 % of control

CCCCCCCCCCC[N+]1(CC)CCCCC1
T/C (dose: 0.78 mg/kg/injection, schedule: Q01DX009 (ip), vehicle: saline): 112 % of control and 93 % of control
T/C (dose: 1.56 mg/kg/injection, schedule: Q01DX009 (ip), vehicle: saline): 100 % of control and 102 % of control
T/C (dose: 3.12 mg/kg/injection, schedule: Q01DX009 (ip), vehicle: saline): 112 % of control and 97 % of control
T/C (dose: 6.25 mg/kg/injection, schedule: Q01DX009 (ip), vehicle: saline): 124 % of control

S=c1[nH]c2ccccc2n2cccc12
T/C [1]: 108 % of control
T/C [2]: 108 % of control
T/C [3]: 106 % of control

COc1ccc(/C=C\c2cc(OC)c(OC)c(OC)c2)c(O)c1O
T/C (dose: 3.12 mg/kg/injection, schedule: Q01DX009 (ip), vehicle: saline + Tween-80 + alcohol): 124 % of control
T/C (dose: 12.5 mg/kg/injection, schedule: Q01DX009 (ip), vehicle: saline + Tween-80 + alcohol): 104 % of control and 97 % of control
T/C (dose: 22.0 mg/kg/injection, schedule: Q01DX009 (ip), vehicle: saline + alcohol): 95 % of control
T/C (dose: 50.0 mg/kg/injection, schedule: Q01DX009 (ip), vehicle: saline + Tween-80 + alcohol): 109 % of control

COc1ccc(S(=O)(=O)N/N=C/c2cc(=O)[nH]c(=O)[nH]2)cc1
T/C (dose: 25.0 mg/kg/injection, schedule: Q01DX005 (ip), vehicle: saline with Tween-80): 100 % of control
T/C [9]: 101 % of control
T/C [10]: 105 % of control
T/C [11]: 118 % of control

COc1cccc(CCl)c1
T/C [13]: 110 % of control and 118 % of control
T/C [14]: 117 % of control and 124 % of control

Cn1cnc([N+](=O)[O-])c1[Se]c1nc(N)nc2c1ncn2C1OC(CO)C(O)C1O (configuration not stated)
T/C (dose: 2.0 mg/kg/injection, schedule: Q01DX009 (ip), vehicle: distilled water + Tween-80): 116 % of control
T/C (dose: 4.0 mg/kg/injection, schedule: Q01DX009 (ip), vehicle: distilled water + Tween-80): 121 % of control
T/C (dose: 32.0 mg/kg/injection, schedule: Q01DX009 (ip), vehicle: distilled water + Tween-80): 160 % of control
T/C (dose: 32.0 mg/kg/injection, schedule: Q01DX009 (ip), vehicle: water): 175 % of control
T/C (dose: 64.0 mg/kg/injection, schedule: Q01DX009 (ip), vehicle: water): 100 % of control

CNc1ccc2ccc(N(C)C)cc2n1
T/C (dose: 12.5 mg/kg/injection, schedule: Q04DX002 (ip), vehicle: Klucel (hydroxypropylcellulose) (HPC)): 102 % of control
T/C [15]: 97 % of control
T/C (dose: 50.0 mg/kg/injection, schedule: Q04DX002 (ip), vehicle: Klucel (hydroxypropylcellulose) (HPC)): 101 % of control

CCN(CC)CCCC(C)Nc1ccc2cc(OC)ccc2n1 (configuration not stated)
T/C (dose: 6.25 mg/kg/injection, schedule: Q01DX005 (ip), vehicle: saline): 103 % of control
T/C (dose: 12.5 mg/kg/injection, schedule: Q01DX005 (ip), vehicle: saline): 103 % of control

O=S(=O)(c1cnccc1N1CCN(CCO)CC1)N1CCCCC1
T/C (dose: 50.0 mg/kg/injection, schedule: Q01DX009 (ip), vehicle: saline): 101 % of control
T/C (dose: 100.0 mg/kg/injection, schedule: Q01DX009 (ip), vehicle: saline): 105 % of control

Cc1ccc(CNc2ccc([N+](=O)[O-])cc2)cc1
T/C (dose: 50.0 mg/kg/injection, schedule: Q04DX003 (ip), vehicle: saline with Tween-80): 100 % of control
T/C (dose: 100.0 mg/kg/injection, schedule: Q04DX003 (ip), vehicle: saline with Tween-80): 100 % of control
T/C (dose: 200.0 mg/kg/injection, schedule: Q04DX003 (ip), vehicle: saline with Tween-80): 95 % of control

CCOP(=O)(OCC)C(C#N)OC(C)(C)C (configuration not stated)
T/C (dose: 60.0 mg/kg/injection, schedule: Q01DX005 (ip), vehicle: saline with Tween-80): 109 % of control
T/C (dose: 120.0 mg/kg/injection, schedule: Q01DX005 (ip), vehicle: saline with Tween-80): 93 % of control

COc1ccc([C@@H]2c3cc4c(cc3C[C@H]3COC(=O)[C@@H]32)OCO4)cc1OC
T/C [15]: 108 % of control
T/C [7]: 124 % of control

[Br][Sn]([Br])([CH2]CC[CH2][Sn]([Br])([Br])[c]1ccccc1)[c]1ccccc1
T/C (dose: 12.5 mg/kg/injection, schedule: Q01DX005 (ip), vehicle: Klucel (hydroxypropylcellulose) (HPC)): 101 % of control
T/C (dose: 25.0 mg/kg/injection, schedule: Q01DX005 (ip), vehicle: Klucel (hydroxypropylcellulose) (HPC)): 117 % of control
T/C [16]: 115 % of control and 117 % of control

CCOC(=O)/C=C(\C)NC1CC(OC2CC(O)(C(C)=O)Cc3c(O)c4c(c(O)c32)C(=O)c2c(OC)cccc2C4=O)OC(C)C1O (configuration not stated)
T/C (dose: 6.25 mg/kg/injection, schedule: Q04DX003 (ip), vehicle: distilled water + Tween-80): 110 % of control
T/C (dose: 12.5 mg/kg/injection, schedule: Q04DX003 (ip), vehicle: distilled water + Tween-80): 119 % of control
T/C (dose: 50.0 mg/kg/injection, schedule: Q04DX003 (ip), vehicle: distilled water + Tween-80): 118 % of control

NC(Cc1c[nH]c(=O)[nH]c1=O)C(=O)O (configuration not stated)
T/C [16]: 96 % of control
T/C (dose: 100.0 mg/kg/injection, schedule: Q01DX005 (ip), vehicle: Klucel (hydroxypropylcellulose) (HPC)): 100 % of control
T/C (dose: 200.0 mg/kg/injection, schedule: Q01DX005 (ip), vehicle: Klucel (hydroxypropylcellulose) (HPC)): 88 % of control

O=C1c2ccccc2C(O)(C#Cc2ccccc2)c2c1oc1ccc3ccccc3c21 (configuration not stated)
T/C [12]: 100 % of control
T/C [13]: 92 % of control
T/C [14]: 87 % of control
